Test results published in patent US20240132431A1, “METHOD FOR ALKYLATING ACIDIC FUNCTIONAL GROUP” (Chugai Seiyaku Kabushiki Kaisha, priority 2021, published 2024).

Biological target: T1, Bcl-2 protein (Recombinant Human Bcl-2 Protein) (Homo sapiens, UniProt P10415)
T1 construct: purchased Novus NBP2-34889
Assay: Binding evaluation of mixture library compounds to Bcl-2 using AS-MS (affinity selection mass spectrometry)
Conditions: for ASMS ratio (%) n = 1 / ASMS ratio (%) n = 2: ASMS Ratio(%)=(A−C)/B×100; for ASMS ratio (%) n = 1: replicate n = 1; for ASMS ratio (%) n = 2: replicate n = 2
Description: For one well of MICROPLATE, 96-well, PP, V-BOTTOM (Greiner bio-one, 651201), DMSO solutions of 12 mixtures (prepared to approximately 0.58 mM based on calculations from the average molecular weight of each mixture), in each of which 100 compounds are mixed, were each dispensed, and dispensed into a total of 12 wells, where the 12 mixtures are mixAI-B4J-01, mixAI-B1M-01, mixAI-B1K-01, mixAI-B10-01, mixAI-B1A-01, mixAI-B3A-01, mixAI-B21-01, mixAI-B2L-01, mixAI-B2N-01, mixAI-B2A-01, mixAI-B2Q-01, and mixAI-B2R-01 listed in [Table AI-03-B4J-01], [Table AI-03-B1M-01], [Table AI-03-B1K-01], [Table AI-03-B10-01], [Table AI-03-B1A-01], [Table AI-03-B3A-01], [Table AI-03-B2I-01], [Table AI-03-B2L-01], [Table AI-03-B2N-01], [Table AI-03-B2A-01], [Table AI-03-B2Q-01], and [AI-03-B2R-01] shown in Example 6. Using the LABCYTE ECHO® 555 Acoustic Dispensing System (BECKMAN COULTER), 70 nL was collected from each of the 12 wells into one arbitrary well to prepare a sample solution with 1200 compounds in the mixed state (the presence of 1152 compounds had already been identified when prepared in Example 6-5-3). (In the present specification, the mixture collected in this one well is referred to as one library.) Furthermore, a Bcl-2 protein (Novus, NBP2-34889, Recombinant Human Bcl-2 Protein, Lot E60145051) (19.2 μL) that had been prepared in advance to be 20.9 μM using a Tris-HCl buffer (25 mM Tris-HCl pH 7.4, 150 mM NaCl, 0.025% Tween-20, 1 mM DTT) was added to the well in which 1200 compounds (the presence of 1152 compounds had already been identified when prepared in Example 6-5-3) were dispensed (final compound concentration […], final Bcl-2 concentration 20 μM), and the mixture was incubated in the dark at 23° C. for 1 hour. Next, using the 96-well MacroSpin column, P-2 Material (Harvard, 74-5655) that had been swollen, conditioning of the 96-well MacroSpin column was performed three times by centrifugation with 200 μL of an assay buffer (25 mM Tris-HCl pH 7.4, 150 mM NaCl, 0.025% Tween-20, 1 mM DTT), 2000 XG, 4° C., 2 min. Subsequently, 20 μL of the sample after incubation was added to the 96-well MacroSpin column, P-2 Material, that had been conditioned, and SEC treatment was performed by centrifugation at 2000×G for 2 minutes. To the liquid passed from the SEC, 32 μL of a 1:1 mixed solution of acetonitrile and methanol (LC/MS grade, Fujifilm Wako Pure Chemical Corporation) was added, the mixture was centrifuged at 1800×G, 4° C., 5 min, and the supernatant was used as analysis sample ASMS (A), while a sample that had been prepared by the same operations at 1200 compounds/well and to which only the Tris-HCl buffer had been added without the Bcl-2 protein was incubated under the same conditions, no 96-well MacroSpin column treatment was performed, the same organic solvent was added, and the supernatant solution obtained by centrifugation was used as STD (B). Next, a sample that had been prepared by the same operations at 1200 compounds/well and to which only the Tris-HCl buffer had been added without the Bcl-2 protein was incubated under the same conditions, the same 96-well MacroSpin column treatment was performed, the same organic solvent was added, and the supernatant solution obtained by centrifugation was used as BK (C), and measured by reversed phase LC/MS.
Then, analysis of the 1200 compounds was carried out for samples A, B, and C with TraceFinder 5.1 (Thermo Fisher Scientific) and CHANCE Software (in-house), and the ASMS Ratio (%) was calculated according to the following calculation formula.
Calculation formula: ASMS Ratio(%)=(A−C)/B×100

[1] = AS-MS on the mixture of 1200 library compounds
[2] = AS-MS, mixture of 1200 compounds, Bcl-2

T1 sequence (P10415 whole entry): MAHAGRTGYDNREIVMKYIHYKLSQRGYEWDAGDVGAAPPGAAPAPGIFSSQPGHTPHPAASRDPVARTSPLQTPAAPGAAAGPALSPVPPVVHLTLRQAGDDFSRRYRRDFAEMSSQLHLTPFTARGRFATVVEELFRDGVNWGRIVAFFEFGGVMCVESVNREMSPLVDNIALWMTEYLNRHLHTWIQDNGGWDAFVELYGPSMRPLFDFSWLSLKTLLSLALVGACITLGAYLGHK

Question: Which “ASMS ratio (%) n = 1” value [1] does the source give for `CCOc1cncc(-c2ccc(C(C)N3CCN(c4ccc(C(=O)Nc5ccc(OC)cc5)cc4)CC3)c(F)c2)c1` (centres unmarked) [B1O100-01, 4-[4-[1-[4-(5-Ethoxypyridin-3-yl)-2-fluorophenyl]ethyl]piperazin-1-yl]-N-(4-methoxyphenyl)benzamide] here?
Answer: The value was −19.7%.

Question: What about the “ASMS ratio (%) n = 2” value [1] of the same molecule?
Answer: The value was 11.1%.

Question: “4-[4-[3-[2-(3-Ethoxyphenyl)ethynyl]-5-(trifluoromethyl)benzoyl]piperazin-1-yl]-N-propylbenzamide [B1M014-01]” was tested. Which “ASMS ratio (%) n = 1” value [2] did it give?
Answer: Its value is 4.1%.

Question: And the “ASMS ratio (%) n = 2” value [2]?
Answer: Its value is 0.4%.

Question: `CCOc1cncc(-c2csc(C(=O)N3CCN(c4ccc(C(=O)NS(=O)(=O)c5ccc(NCCSc6ccccc6)c(C(F)(F)F)c5)nn4)CC3)c2)c1` [B2R002-01, 6-[4-[4-(5-Ethoxypyridin-3-yl)thiophene-2-carbonyl]piperazin-1-yl]-N-[4-(2-phenylsulfanylethylamino)-3-(trifluoromethyl)phenyl]sulfonylpyridazine-3-carboxamide] was tested. Which “ASMS ratio (%)” value (n = 1) did it give?
Answer: The value was 0.0%.

Question: And the “ASMS ratio (%)” value (n = 2)?
Answer: The value was 0.0%.

Question: With `CCOc1cncc(-c2cc(C(=O)N3CCN(c4ccc(C(=O)N(CC)CC)nn4)CC3)cc(C(C)(C)C)c2)c1` [B4J016-01, 6-[4-[3-tert-Butyl-5-(5-ethoxypyridin-3-yl)benzoyl]piperazin-1-yl]-N,N-diethylpyridazine-3-carboxamide] as the molecule, how does the “ASMS ratio (%) n = 1” value [1] read?
Answer: Its value is 0.0%.

Question: And the “ASMS ratio (%) n = 2” value [1]?
Answer: Its value is 0.9%.

Question: Which “ASMS ratio (%) n = 1” value (AS-MS, mixture library, Bcl-2) does the source give for `CCOc1cccc(C#Cc2cc(C(=O)N3CCN(c4ccc(C(=O)NS(=O)(=O)CC56CC7CC(CC(C7)C5)C6)nn4)CC3)cc(C(F)(F)F)c2)c1` [B2A019-01, N-(1-Adamantylmethylsulfonyl)-6-[4-[3-[2-(3-ethoxyphenyl)ethynyl]-5-(trifluoromethyl)benzoyl]piperazin-1-yl]pyridazine-3-carboxamide] here?
Answer: Its value is 7.4%.

Question: And the “ASMS ratio (%) n = 2” value (AS-MS, mixture library, Bcl-2)?
Answer: The value was 5.0%.

Question: `CCOc1cncc(C#Cc2ccccc2C(=O)N2CCN(c3ccc(C(=O)NS(=O)(=O)c4ccc(NCCSc5ccccc5)c([N+](=O)[O-])c4)cc3)CC2)c1` [B2Q030-01, 4-[4-[2-[2-(5-Ethoxypyridin-3-yl)ethynyl]benzoyl]piperazin-1-yl]-N-[3-nitro-4-(2-phenylsulfanylethylamino)phenyl]sulfonylbenzamide] was tested. Which “ASMS ratio (%) n = 1” value (AS-MS, mixture library, Bcl-2) did it give?
Answer: Its value is 6.6%.

Question: And the “ASMS ratio (%) n = 2” value (AS-MS, mixture library, Bcl-2)?
Answer: Its value is −4.1%.

Question: `CCOc1cccc(-c2ccc(CN3CCN(c4ccc(C(=O)Nc5ccc(OC)cc5)cc4)CC3)c(CC)c2)c1` [B1O049-01, 4-[4-[[4-(3-Ethoxyphenyl)-2-ethylphenyl]methyl]piperazin-1-yl]-N-(4-methoxyphenyl)benzamide] was tested. Which “ASMS ratio (%) n = 1” value [1] did it give?
Answer: The value was 6.1%.

Question: And the “ASMS ratio (%) n = 2” value [1]?
Answer: Its value is 0.0%.

Question: With `CCOc1cncc(-c2ccc(C(=O)N3CCN(c4ccc(C(=O)Nc5ccc(OC)cc5)cc4)CC3)cc2C)c1` [B1O026-01, 4-[4-[4-(5-Ethoxypyridin-3-yl)-3-methylbenzoyl]piperazin-1-yl]-N-(4-methoxyphenyl)benzamide] as the molecule, how does the “ASMS ratio (%) n = 1” value [1] read?
Answer: The value was 1.7%.

Question: And the “ASMS ratio (%) n = 2” value [1]?
Answer: Its value is −1.5%.

Question: How did the “ASMS ratio (%) n = 1” value [2] turn out when `CCOc1cncc(-c2ccc(CN3CCN(c4ccc(C(=O)NCC(F)(F)F)nn4)CC3)c(OC)c2)c1` [B1K080-01, 6-[4-[[4-(5-Ethoxypyridin-3-yl)-2-methoxyphenyl]methyl]piperazin-1-yl]-N-(2,2,2-trifluoroethyl)pyridazine-3-carboxamide] was run?
Answer: Its value is 0.0%.

Question: And the “ASMS ratio (%) n = 2” value [2]?
Answer: Its value is 0.0%.

Question: Which “ASMS ratio (%) n = 1” value [1] does the source give for “6-[4-[[4-(5-Ethoxypyridin-3-yl)-3-fluorophenyl]methyl]piperazin-1-yl]-N-propylpyridazine-3-carboxamide [B1M086-01]” here?
Answer: Its value is 0.0%.

Question: And the “ASMS ratio (%) n = 2” value [1]?
Answer: Its value is 0.0%.

Question: For `CCOc1cncc(-c2ccc(C(=O)N3CCN(c4ccc(C(=O)NS(=O)(=O)c5ccc(NCCSc6ccccc6)c(C(F)(F)F)c5)nn4)CC3)c3ccccc23)c1` [B2R014-01, 6-[4-[4-(5-Ethoxypyridin-3-yl)naphthalene-1-carbonyl]piperazin-1-yl]-N-[4-(2-phenylsulfanylethylamino)-3-(trifluoromethyl)phenyl]sulfonylpyridazine-3-carboxamide], which “ASMS ratio (%)” value (n = 1) is on record?
Answer: Its value is 18.6%.

Question: And the “ASMS ratio (%)” value (n = 2)?
Answer: Its value is 15.1%.

Question: `CCOc1cncc(C#Cc2cc(C(=O)N3CCN(c4ccc(C(=O)NS(C)(=O)=O)nn4)CC3)cc(C(F)(F)F)c2)c1` [B2I020-01, 6-[4-[3-[2-(5-Ethoxypyridin-3-yl)ethynyl]-5-(trifluoromethyl)benzoyl]piperazin-1-yl]-N-methylsulfonylpyridazine-3-carboxamide] was tested. Which “ASMS ratio (%) n = 1” value (AS-MS, mixture library, Bcl-2) did it give?
Answer: Its value is 0.0%.

Question: And the “ASMS ratio (%) n = 2” value (AS-MS, mixture library, Bcl-2)?
Answer: The value was 0.0%.

Question: “4-[4-[5-[2-(5-Ethoxypyridin-3-yl)ethynyl]pyridine-3-carbonyl]piperazin-1-yl]-N-propylbenzamide [B1M057-01]” was tested. Which “ASMS ratio (%) n = 1” value [2] did it give?
Answer: Its value is −0.7%.

Question: And the “ASMS ratio (%) n = 2” value [2]?
Answer: The value was 1.4%.

Question: For `CCOc1cncc(-c2cc(OC)c(CN3CCN(c4ccc(C(=O)NCC(F)(F)F)nn4)CC3)c(OC)c2)c1` [B1K086-01, 6-[4-[[4-(5-Ethoxypyridin-3-yl)-2,6-dimethoxyphenyl]methyl]piperazin-1-yl]-N-(2,2,2-trifluoroethyl)pyridazine-3-carboxamide], which “ASMS ratio (%) n = 2” value [2] is on record?
Answer: The value was 0.0%.

Question: Which results are given for `CCOc1cccc(-c2cc(CN3CCN(c4ccc(C(=O)Nc5ccc(OC)cc5)nn4)CC3)cc(OC(C)C)c2)c1` [B1O083-01, 6-[4-[[3-(3-Ethoxyphenyl)-5-propan-2-yloxyphenyl]methyl]piperazin-1-yl]-N-(4-methoxyphenyl)pyridazine-3-carboxamide]?
Answer: ASMS ratio (%) n = 1 [1]: 7.2%; ASMS ratio (%) n = 2 [1]: 1.0%

Question: What does the source list for `CCOc1cccc(C#Cc2cncc(C(=O)N3CCN(c4ccc(C(=O)NCC56CC7CC(CC(C7)C5)C6)cc4)CC3)c2)c1` [B1A031-01, N-(1-Adamantylmethyl)-4-[4-[5-[2-(3-ethoxyphenyl)ethynyl]pyridine-3-carbonyl]piperazin-1-yl]benzamide]?
Answer: ASMS ratio (%) n = 1 [2]: 6.9%; ASMS ratio (%) n = 2 [2]: −1.8%

Question: Which “ASMS ratio (%)” value (n = 1) does the source give for `CCOc1cncc(C#Cc2cncc(C(=O)N3CCN(c4ccc(C(=O)NS(=O)(=O)C(C)(C)C)cc4)CC3)c2)c1` [B2L032-01, N-tert-Butylsulfonyl-4-[4-[5-[2-(5-ethoxypyridin-3-yl)ethynyl]pyridine-3-carbonyl]piperazin-1-yl]benzamide] here?
Answer: Its value is 0.0%.

Question: And the “ASMS ratio (%)” value (n = 2)?
Answer: Its value is −1.0%.

Question: `CCOc1cccc(-c2ccc(CN3CCN(c4ccc(C(=O)NS(C)(=O)=O)nn4)CC3)cc2C)c1` [B2I073-01, 6-[4-[[4-(3-Ethoxyphenyl)-3-methylphenyl]methyl]piperazin-1-yl]-N-methylsulfonylpyridazine-3-carboxamide] was tested. Which “ASMS ratio (%)” value (n = 1) did it give?
Answer: Its value is 0.0%.

Question: What about the “ASMS ratio (%)” value (n = 2) of the same molecule?
Answer: The value was 0.0%.
